Measurements as given in ChEMBL document CHEMBL1201862, “PubChem BioAssay data set” (2004).
Several values for one entry are separate records, joined by “and”; a condition that tells them apart may be missing. Identical values can stand only once.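 Briefly, cells in 96-well plates were exposed to five compound concentrations for 48 h, and endpoints were estimated by linear interpolation. GI50: concentration for 50% inhibition of growth.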 Activity calls are given as the source filed them. Cut-off read from the data, not from the text of the source: active = GI50 up to about 1.1 µM and inactive = higher.

Legend:
Assay in all cases: NCI anticancer screen, dose series, 48 h
BT-549 = system: BT-549
COLO 205 = system: COLO 205
EKVX = system: EKVX
HT-29 = system: HT-29
IGROV-1 = system: IGROV-1
K562 = system: K562
MDA-MB-231 = system: MDA-MB-231
MOLT-4 = system: MOLT-4
Malme-3M = system: Malme-3M
NCI-H226 = system: NCI-H226
NCI/ADR-RES = system: NCI/ADR-RES
RPMI-8226 = system: RPMI-8226
SF-268 = system: SF-268
SK-MEL-5 = system: SK-MEL-5
SNB-19 = system: SNB-19
SW-620 = system: SW-620
NCI-H23 = system: NCI-H23
OVCAR-3 = system: OVCAR-3
SF-295 = system: SF-295
SR = system: SR

SMILES	GI50 (BT-549)	GI50 (COLO 205)	GI50 (EKVX)	GI50 (HT-29)	GI50 (IGROV-1)	GI50 (K562)	GI50 (MDA-MB-231)	GI50 (MOLT-4)	GI50 (Malme-3M)	GI50 (NCI-H226)	GI50 (NCI/ADR-RES)	GI50 (RPMI-8226)	GI50 (SF-268)	GI50 (SK-MEL-5)	GI50 (SNB-19)	GI50 (SW-620)	GI50 (NCI-H23)	GI50 (OVCAR-3)	GI50 (SF-295)	GI50 (SR)
CN(C)c1ccc(-c2c(C#N)c(O)n(NS(=O)(=O)c3ccccc3)c(=O)c2C#N)cc1	> 100 µM (inactive)	> 100 µM (inactive)	> 100 µM (inactive)	> 100 µM (inactive)	> 100 µM (inactive)	> 100 µM (inactive)	> 100 µM (inactive)	> 100 µM (inactive)	> 100 µM (inactive)	> 100 µM (inactive)	> 100 µM (inactive)	> 100 µM (inactive)	> 100 µM (inactive)	> 100 µM (inactive)	> 100 µM (inactive)	> 100 µM (inactive)				
CC(=O)Oc1c2oc3ccc(Cl)cc3c(=O)c2c(O)c2ccsc12	51.4 µM (inactive)	> 100 µM (inactive)	> 100 µM (inactive)	> 100 µM (inactive)		60.7 µM (inactive)	28.2 µM (inactive)		> 100 µM (inactive)	> 100 µM (inactive)	> 100 µM (inactive)	> 100 µM (inactive)	> 100 µM (inactive)	> 100 µM (inactive)	> 100 µM (inactive)	> 100 µM (inactive)	> 100 µM (inactive)	> 100 µM (inactive)	> 100 µM (inactive)	
Clc1ccc2c(NCCNc3ccnc4cc(Cl)ccc34)ccnc2c1	19.2 µM (inactive)	14.6 µM (inactive)	19.2 µM (inactive)	15.3 µM (inactive)	18.2 µM (inactive)	12.3 µM (inactive)	17 µM (inactive)	17.4 µM (inactive)	> 100 µM (inactive)	37.9 µM (inactive)	30.8 µM (inactive)	20.6 µM (inactive)	25.9 µM (inactive)	22.4 µM (inactive)	20.1 µM (inactive)	13.6 µM (inactive)	17.1 µM (inactive)	15.1 µM (inactive)	13.3 µM (inactive)	
CCOC(=O)CC(c1ccccc1)C(C)(C(=O)OCC)C(=O)OCC (stereo unspecified)	70.1 µM (inactive)	> 100 µM (inactive)	> 100 µM (inactive)	> 100 µM (inactive)	> 100 µM (inactive)	> 100 µM (inactive)	> 100 µM (inactive)	76.9 µM (inactive)	> 100 µM (inactive)	> 100 µM (inactive)	> 100 µM (inactive)		> 100 µM (inactive)	> 100 µM (inactive)	> 100 µM (inactive)	> 100 µM (inactive)	> 100 µM (inactive)		> 100 µM (inactive)	61.2 µM (inactive)
Fc1cccc(F)c1C1SCc2nc3cc(Cl)ccc3n21 (stereo unspecified)	21.9 µM (inactive)	17.9 µM (inactive)	36.6 µM (inactive)	15.2 µM (inactive)	> 42.9 µM (inactive)	35.1 µM (inactive)	55.1 µM (inactive)	14 µM (inactive)	17 µM (inactive)		24.2 µM (inactive)	22.7 µM (inactive)	> 100 µM (inactive)	16 µM (inactive)	92.5 µM (inactive)	38.7 µM (inactive)	28.5 µM (inactive)	46 µM (inactive)	33.2 µM (inactive)	17.8 µM (inactive)
COc1ccc(C2Oc3c(OC)cc(CCCO)cc3C2CO)cc1OC (stereo unspecified)	96.2 µM (inactive) and 50.7 µM (inactive)	> 100 µM (inactive)	61.4 µM (inactive) and 39.9 µM (inactive)	> 100 µM (inactive)	> 100 µM (inactive)	20.6 µM (inactive) and 38.5 µM (inactive)	99.3 µM (inactive)	42.5 µM (inactive) and 26.9 µM (inactive)	> 100 µM (inactive) and 50.7 µM (inactive)	> 100 µM (inactive)	69 µM (inactive)		> 100 µM (inactive)		> 100 µM (inactive)	> 100 µM (inactive)		> 100 µM (inactive)	50.4 µM (inactive) and 70.8 µM (inactive)	
O=C(O)Cc1ccc2nc(COC(=O)c3ccccc3)sc2c1	> 100 µM (inactive)	> 100 µM (inactive)	> 100 µM (inactive)		> 100 µM (inactive)	> 100 µM (inactive)	> 100 µM (inactive)		> 100 µM (inactive)		> 100 µM (inactive)	> 100 µM (inactive)	> 100 µM (inactive)	> 100 µM (inactive)	> 100 µM (inactive)	> 100 µM (inactive)	> 100 µM (inactive)	> 100 µM (inactive)	> 100 µM (inactive)	> 100 µM (inactive)
NCCSCc1ccccc1Cl	69.7 µM (inactive)		34.3 µM (inactive)	36.1 µM (inactive)	51.4 µM (inactive)	26.9 µM (inactive)	45.6 µM (inactive)	31 µM (inactive)	65.8 µM (inactive)	> 100 µM (inactive)	> 100 µM (inactive)		95.7 µM (inactive)	63 µM (inactive)	80.4 µM (inactive)	33.4 µM (inactive)	30.1 µM (inactive)	28.9 µM (inactive)	41.1 µM (inactive)	18.6 µM (inactive)
COC(=O)C1=C(C(=O)OC)C(Cc2ccccc2)(OO)OC1=O (stereo unspecified)	6.32 µM (inactive)	7.19 µM (inactive)	11.3 µM (inactive)	3.17 µM (inactive)	4.65 µM (inactive)	2.7 µM (inactive)	28.2 µM (inactive)	3.64 µM (inactive)	6.22 µM (inactive)	5.46 µM (inactive)	7.82 µM (inactive)			4.26 µM (inactive)	22 µM (inactive)	2.83 µM (inactive)	12.7 µM (inactive)	4.33 µM (inactive)	29.5 µM (inactive)	3.52 µM (inactive)
Brc1ccc2c(c1)-c1nc3c(cc1CC2)CCc1ccc(Br)cc1-3	> 100 µM (inactive)	> 100 µM (inactive)	> 100 µM (inactive)		> 100 µM (inactive)	22.6 µM (inactive)	> 100 µM (inactive)	42.4 µM (inactive)	> 100 µM (inactive)	> 100 µM (inactive)	> 100 µM (inactive)	0.637 µM (active)	> 100 µM (inactive)	> 100 µM (inactive)	> 100 µM (inactive)	> 100 µM (inactive)	> 100 µM (inactive)	> 100 µM (inactive)	> 100 µM (inactive)	
O=C(N/N=C\c1cccc2ccccc12)Nc1cccc2ccccc12	27.7 µM (inactive)	16.9 µM (inactive)	84.7 µM (inactive)	4.17 µM (inactive)	25.9 µM (inactive)	3.17 µM (inactive)	16 µM (inactive)	4.49 µM (inactive)	35.2 µM (inactive)	49.4 µM (inactive)	> 100 µM (inactive)		63.4 µM (inactive)	13.1 µM (inactive)	16.4 µM (inactive)	10.6 µM (inactive)	23.7 µM (inactive)			3.29 µM (inactive)
C#CCn1c(=O)c(I)cn(/C(=C/C(=O)OCC)C(=O)OCC)c1=O	11.5 µM (inactive)	0.667 µM (active)	2.94 µM (inactive)	12.6 µM (inactive)	15.7 µM (inactive)	0.659 µM (active)	15.2 µM (inactive)	< 0.0195 µM (active)	1.52 µM (inactive)	25.7 µM (inactive)	18.9 µM (inactive)	0.746 µM (active)	9.44 µM (inactive)		18.3 µM (inactive)	1.18 µM (inactive)	15.3 µM (inactive)	1.78 µM (inactive)	39.7 µM (inactive)	
Cc1ccccc1N/C(N)=N/C#N	> 100 µM (inactive)	> 100 µM (inactive)	> 100 µM (inactive)	> 100 µM (inactive)	> 100 µM (inactive)	> 100 µM (inactive)	> 100 µM (inactive)	> 100 µM (inactive)	> 100 µM (inactive)		> 100 µM (inactive)	> 100 µM (inactive)	> 100 µM (inactive)	> 100 µM (inactive)	> 100 µM (inactive)	> 100 µM (inactive)	> 100 µM (inactive)			> 100 µM (inactive)
CCNC(=O)Cc1nc2c(O)ncnc2n1C1OC(CO)C(O)C1O (stereo unspecified)	> 100 µM (inactive)	> 100 µM (inactive)	> 100 µM (inactive)	> 100 µM (inactive)	> 100 µM (inactive)	> 100 µM (inactive)	> 100 µM (inactive)	> 100 µM (inactive)	> 100 µM (inactive)	> 100 µM (inactive)	> 100 µM (inactive)	> 100 µM (inactive)	> 100 µM (inactive)	> 100 µM (inactive)	> 100 µM (inactive)	> 100 µM (inactive)	> 100 µM (inactive)	> 100 µM (inactive)	> 100 µM (inactive)	
O=c1[nH]cc(NCCCl)c(=O)[nH]1	> 100 µM (inactive)	> 100 µM (inactive)	> 100 µM (inactive)	> 100 µM (inactive)	> 100 µM (inactive)	> 100 µM (inactive)	> 100 µM (inactive)	> 100 µM (inactive)	> 100 µM (inactive)	> 100 µM (inactive)	> 100 µM (inactive)	> 100 µM (inactive)	> 100 µM (inactive)	> 100 µM (inactive)	> 100 µM (inactive)	> 100 µM (inactive)	> 100 µM (inactive)	> 100 µM (inactive)	> 100 µM (inactive)	
